Experimental findings from patent publication US20250051263A1, “NOVEL IONIZABLE LIPIDS AND LIPID NANOPARTICLES AND METHODS OF USING THE SAME” (Sail Biomedicines, Inc., priority 2021, published 2025) are described below.

Data set [1] is described as follows: mRNA encapsulation efficiency, Quant-iT RiboGreen RNA Assay. In kind it is physicochemical. The settings on record: Example 5 LNP lipid:DOPE:Plant Cholesterol:DMPE-PEG2k 35:16:46.5:2.5, FLUC/EPO 1:1 mRNA, N:P 6:1. From the text: (§1) All other compositions (i.e., compositions of MC3 (a commercially available ionizable lipid having a chemical name of (6Z,9Z,28Z,31Z)-heptatriacont-6,9,28,31-tetraene-19-yl 4-(dimethylamino)butanoate, and compositions of novel ionizable lipids 7669, 7671, 7668, 767, 7650) are composed of ionizable lipid:structural lipid:sterol:PEG-lipid (SDA lipid #:DSPC:cholesterol:14:0 PEG2000 PE) at a molar ratio of […], respectively. Lipids are solubilized in ethanol. Compositions are then handled as above, except the formulations are maintained at ionizable lipid to mRNA N:P ratio of 6:1. The lipid mix and mRNA solution are mixed at a 1:3 ratio by volume, respectively, on a NanoAssemblr Ignite (Precision Nanosystems) at a total flow rate of 9 mL/min. Resulting compositions are then loaded into Slide-A-Lyzer G2 dialysis cassettes (10 k MWCO) and dialyzed in 200 times sample volume of 1×PBS for 4 hrs at room temp with gentle stirring. The PBS is refreshed, and the compositions are further dialyzed for at least 14 hrs at 4° C. with gentle stirring. The dialyzed compositions are then collected and concentrated by centrifugation at 2000×g using Amicon Ultra centrifugation filters (100 k MWCO). Concentrated particles are characterized for size, polydispersity, and particle concentration using Zetasizer Ultra (Malvern Panalytical) and for mRNA encapsulation efficiency using Quant-iT RiboGreen RNA Assay Kit (ThermoFisher Scientific).
(§2) The lipid mix and mRNA solution were mixed at a 1:3 ratio by volume, respectively, on the NanoAssemblr Ignite (Precision Nanosystems) at a total flow rate of 9 mL/min. Resulting formulations were then loaded into Slide-A-Lyzer G2 dialysis cassettes (10 k MWCO) and dialyzed in 200 times sample volume of 1×PBS for 2 hrs at room temperature. The PBS was refreshed, and the formulations were further dialyzed for at least 14 hrs at 4° C. with gentle stirring. The dialyzed formulations were then collected and concentrated by centrifugation at 3000×g using Amicon Ultra centrifugation filters (100 k MWCO). The concentrated formulations were characterized for size, polydispersity, and particle concentration using Zetasizer Ultra (Malvern Panalytical) and for mRNA encapsulation efficiency using Quant-iT RiboGreen RNA Assay Kit (ThermoFisher Scientific).
(§3) For each LNP composition, the lipid mix and mRNA solution were mixed at a 1:3 ratio by volume, respectively, on a NanoAssemblr Ignite (Precision Nanosystems) at a total flow rate of 9 mL/min. The resulting compositions were then loaded into Slide-A-Lyzer G2 dialysis cassettes (10 k MWCO) and dialyzed in 200 times sample volume of 1×PBS for 2 hours at room temperature with gentle stirring. The PBS was refreshed, and the compositions were further dialyzed for at least 14 hours at 4° C. with gentle stirring. The dialyzed compositions were then collected and concentrated by centrifugation at 3000×g using Amicon Ultra centrifugation filters (100 k MWCO). The concentrated particles were characterized for size, polydispersity, and particle concentration using Zetasizer Ultra (Malvern Panalytical) and for mRNA encapsulation efficiency using Quant-iT RiboGreen RNA Assay Kit (ThermoFisher Scientific).

A short description of data set [2]: LNP size and polydispersity, Zetasizer Ultra. In kind it is physicochemical. The following applies: Example 5 LNP lipid:DOPE:Plant Cholesterol:DMPE-PEG2k 35:16:46.5:2.5, FLUC/EPO 1:1 mRNA, N:P 6:1.
Excerpt: as §1, §2, §3

Molecules are shown by their SMILES.

For `CCCCCCCCCOC(=O)CCCCCCCN(CCCCCCCC(=O)OC(CCCCCCCC)CCCCCCCC)CCNC(=O)CCC(=O)NCCN(CCCCCCCC(=O)OCCCCCCCCC)CCCCCCCC(=O)OC(CCCCCCCC)CCCCCCCC` [Compound 2213, nonyl 8-[2-[[4-[2-[(8-nonoxy-8-oxo-octyl)-[8-(1-octylnonoxy)-8-oxo-octyl]amino]ethylamino]-4-oxo-butanoyl]amino]ethyl-[8-(1-octylnonoxy)-8-oxo-octyl]amino]octanoate], in data set [1], the “% EE” value is recorded as 92.5%. Moreover, in data set [2], the PDI was 0.10 and the “Size (nm)” value is given as 63.9 nm.

For the compound `CCCCCCCCC(CCCCCCCC)OC(=O)CCCCCCCN(CCCCCCCC(=O)OC(CCCCCCCC)CCCCCCCC)CCNC(=O)CCC(=O)NCCN(CCCCCCCC(=O)OC(CCCCCCCC)CCCCCCCC)CCCCCCCC(=O)OC(CCCCCCCC)CCCCCCCC` [Compound 2275, 1-octylnonyl 8-[2-[[4-[2-[bis[8-(1-octylnonoxy)-8-oxo-octyl]amino]ethylamino]-4-oxo-butanoyl]amino]ethyl-[8-(1-octylnonoxy)-8-oxo-octyl]amino] octanoate], the “% EE” value in data set [1] is 94.7%. Besides, in data set [2], the PDI worked out at 0.10 and the “Size (nm)” value was 67.4 nm.

Take `CCCCCC(CCCCC)CCCOC(=O)CCCCCCCN(CCCCCCCC(=O)OCCCC(CCCCC)CCCCC)CCNC(=O)CCC(=O)NCCN(CCCCCCCC(=O)OCCCC(CCCCC)CCCCC)CCCCCCCC(=O)OCCCC(CCCCC)CCCCC` [Compound 2332, bis(4-pentyl-nonyl)13,16-dioxo-9,20-bis(8-oxo-8-((4-pentylnon-yl)oxy)octyl)-9,12,17,20-tetraazaocta-cosanedioate]: the “% EE” value in data set [1] came to 98.0%. Further, in data set [2], the PDI stood at 0.12 and the “Size (nm)” value was found to be 68.1 nm.

For `CCCCCCCCCCC(CC)OC(=O)CCCCCN(CCCCCCCC(=O)OC(CCCCCCCC)CCCCCCCC)CCNC(=O)/C=C/C(=O)NCCN(CCCCCCCC(=O)OC(CCCCCCCC)CCCCCCCC)CCCCCC(=O)OC(CC)CCCCCCCCCC` (stereo not drawn) [Compound 2378, 1-octylnonyl 8-[[6-(1-ethylundecoxy)-6-oxo-hexyl]-[2-[[(E)-4-[2-[[6-(1-ethylundecoxy)-6-oxo-hexyl]-[8-(1-octylnonoxy)-8-oxo-octyl]amino]ethylamino]-4-oxo-but-2-enoyl]amino]ethyl]amino]octanoate], the “% EE” value in data set [1] turned out to be 93.0%. In addition, in data set [2], the PDI turned out to be 0.08 and the “Size (nm)” value is 107.8 nm.

Turning to `CCCCCCCCC(CCCCCCCC)OC(=O)CCCCCCCN(CCCCCCCC(=O)OC(CCCCCCCC)CCCCCCCC)CCNC(=O)CCCC(=O)NCCN(CCCCCCCC(=O)OC(CCCCCCCC)CCCCCCCC)CCCCCCCC(=O)OC(CCCCCCCC)CCCCCCCC` [Compound 2320, 1-octylnonyl 8-[2-[[5-[2-[bis[8-(1-octylnonoxy)-8-oxo-octyl]amino]ethylamino]-5-oxo-pentanoyl]amino]ethyl-[8-(1-octylnonoxy)-8-oxo-octyl]amino]octanoate], the “% EE” value in data set [1] amounted to 93.4%. Also, in data set [2], the PDI came out at 0.15 and the “Size (nm)” value amounted to 126.1 nm.

For the compound `CCCCCCCCCCCNC(=O)CCCCCN(CCCCCCCC(=O)NC(CCCCCCCC)CCCCCCCC)CCNC(=O)CCC(=O)NCCN(CCCCCCCC(=O)NC(CCCCCCCC)CCCCCCCC)CCCCCC(=O)NCCCCCCCCCCC` [Compound 2282, N,N′-bis[2-[[8-(1-octylnonylamino)-8-oxo-octyl]-[6-oxo-6-(undecylamino)hexyl]amino]ethyl]butanediamide], the “% EE” value in data set [1] is 94.7%. In data set [2], the PDI was determined as 0.16 and the “Size (nm)” value worked out at 73.1 nm.

`CCCCCCCCCCCOC(=O)CCCCCN(CCCCCCCC(=O)OCCCC(CCCCC)CCCCC)CCNC(=O)/C=C/C(=O)NCCN(CCCCCCCC(=O)OCCCC(CCCCC)CCCCC)CCCCCC(=O)OCCCCCCCCCCC` [Compound 2382, 4-pentylnonyl 8-[2-[[(E)-4-oxo-4-[2-[[8-oxo-8-(4-pentylnonoxy)octyl]-(6-oxo-6-undecoxy-hexyl)amino]ethylamino]but-2-enoyl]amino]ethyl-(6-oxo-6-undecoxy-hexyl)amino]octanoate]: the “% EE” value in data set [1] amounted to 87.3%. Moreover, in data set [2], the PDI is 0.13 and the “Size (nm)” value is reported as 105.2 nm.

Take `CCCCCCCCCCCOC(=O)CCCCCN(CCCCCCCC(=O)OC(CCCCCCCC)CCCCCCCC)CCN1CCN(CCN(CCCCCCCC(=O)OC(CCCCCCCC)CCCCCCCC)CCCCCC(=O)OCCCCCCCCCCC)CC1` [Compound 2248, 1-octylnonyl 8-[2-[4-[2-[[8-(1-octylnonoxy)-8-oxo-octyl]-(6-oxo-6-undecoxy-hexyl)amino]ethyl]piperazin-1-yl]ethyl-(6-oxo-6-undecoxy-hexyl)amino]octanoate]: the “% EE” value in data set [1] is 95.0%. Moreover, in data set [2], the PDI came to 0.10 and the “Size (nm)” value worked out at 83.5 nm.

Regarding `CCCCCCCCCCCOC(=O)CCCCCN(CCCCCCCC(=O)OC(CCCCCC)CCCCCCCC)CCNC(=O)CCC(=O)NCCN(CCCCCCCC(=O)OC(CCCCCC)CCCCCCCC)CCCCCC(=O)OCCCCCCCCCCC` (stereo not drawn) [Compound 2390, 1-hexylnonyl 8-[2-[[4-[2-[[8-(1-hexylnonoxy)-8-oxo-octyl]-(6-oxo-6-undecoxy-hexyl)amino]ethylamino]-4-oxo-butanoyl]amino]ethyl-(6-oxo-6-undecoxy-hexyl)amino]octanoate], the “% EE” value in data set [1] was determined as 90.6%. Further, in data set [2], the PDI was determined as 0.09 and the “Size (nm)” value amounted to 71.6 nm.

On to `CCCCCCCCCC(C)COC(=O)CCCCCN(CCCCCCCC(=O)OC(CCCCCCCC)CCCCCCCC)CCNC(=O)CCC(=O)NCCN(CCCCCCCC(=O)OC(CCCCCCCC)CCCCCCCC)CCCCCC(=O)OCC(C)CCCCCCCCC` (stereo not drawn) [Compound 2355, 1-octylnonyl 8-[[6-(2-methylundecoxy)-6-oxo-hexyl]-[2-[[4-[2-[[6-(2-methylundecoxy)-6-oxo-hexyl]-[8-(1-octylnonoxy)-8-oxo-octyl]amino]ethylamino]-4-oxo-butanoyl]amino]ethyl]amino]octanoate], for which the “% EE” value in data set [1] turned out to be 94.9%. For the same compound, in data set [2], the PDI was determined as 0.07 and the “Size (nm)” value turned out to be 74.7 nm.
